Experimental data: patent publication US20220118036A1, “USE OF MORCHELLA ACTIVE SUBSTANCE” (GRAPE KING BIO LTD., priority 2020, published 2022)
Values joined by “and” are separate entries in the source; they are usually repeats but may differ in a detail not shown here. Identical values can stand only once.

System: mouse skeletal muscle cells C2C12
Test: Dexamethasone-induced muscle atrophy of differentiated C2C12 myotubes (myotube width, H&E staining)
Type: cell-based
Conditions: 1 μM Dexamethasone alone, 24 hours, mean±SD, n = 60, control 30.39 ± 4.52
Procedure: Currently, there have been experiments using Dexamethasone to induce muscle atrophy in mouse skeletal muscle cell C2C12. […] This paper uses a synthetic glucocorticoid-Dexamethasone to induce differentiated C2C12 atrophy as a model of muscle atrophy for sarcopenia study, in which the severity of muscle atrophy is measured according to the observation of morphology and diameter of the myotubes. According to such a method, in this experiment, the differentiated mouse skeletal muscle cell C2C12 is stained with H&E (hematoxylin and eosin) to assess the effect of the Morchella mycelium active substance in muscle atrophy. The experimental method is as follows:
(1) After the mouse skeletal muscle cells C2C12 was collected and the cell suspension concentration was adjusted, the cells were plated in a 6-well plate at a cell density of 1×10^5-2×10^5 with the cell growth medium (DMEM, 10% Fetal Bovine Serum).
(2) The 6-well plate of (1) was placed in a 5% CO2 incubator at 37° C. for two days and then observed under a microscope. […]
(5) Each test was repeated 3 times, and the numerical value was expressed as mean±SD (standard deviation). The statistical method used paired t-test to analyze the percentages of each item, and the significant difference was determined when the p-value was less than 0.05.

C[C@@H]1C[C@H]2[C@@H]3CCC4=CC(=O)C=C[C@]4(C)[C@@]3(F)[C@@H](O)C[C@]2(C)[C@@]1(O)C(=O)CO [Dexamethasone]
myotube diameter: 19.98 μm and 19.98 ± 6.42 μm
